Among the test systems are SK-MEL-28 melanoma; ACHN renal; HCT-116 colon; SNB-19 CNS; SR leukemia; HCC-2998 colon; TK-10 renal; CCRF-CEM leukemia; SW-620 colon.
Assay in all cases: growth of human tumour cells (NCI), 48 h

This is an account of results in PubChem BioAssay (NCI).

SMILES strings stand for the structures.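 In this assay, cells in 96-well plates receive the compound at five concentrations for 48 hours. Endpoints are linearly interpolated between the surrounding concentrations. GI50: concentration for 50% inhibition of growth. TGI is the concentration that stops growth completely.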

On to `CN(C)c1ccc(/C=C/c2ccc(S(N)(=O)=O)cc2)cc1`, for which the TGI is 28 µM in the assay on SK-MEL-28 melanoma; 33.6 µM in the assay with ACHN renal; 67.2 µM in the assay with HCT-116 colon; 44.9 µM in the assay on SNB-19 CNS; over 100 µM in the assay with SR leukemia; over 100 µM in the assay on HCC-2998 colon. Also, the TGI with TK-10 renal is 39.8 µM; with CCRF-CEM leukemia it was over 100 µM; with SW-620 colon, 92.9 µM. Moreover, the GI50 was 13.6 µM in the assay with ACHN renal, 8.58 µM in the assay with SR leukemia and 46 µM in the assay with CCRF-CEM leukemia.
Take `COC(=O)C1Cc2ccc(O)c(O)c2CN1` (stereo unspecified): the TGI in the assay on SK-MEL-28 melanoma was 31 µM; in the assay with ACHN renal it was over 100 µM; in the assay with HCT-116 colon it was 52.6 µM; in the assay with SNB-19 CNS it was over 100 µM; with SR leukemia, 82.2 µM; in the assay with HCC-2998 colon, over 100 µM. Moreover, the TGI is over 100 µM with TK-10 renal, over 100 µM in the assay with CCRF-CEM leukemia and 40.7 µM in the assay on SW-620 colon.
With `COC1CCON1C(=O)c1ccccc1` (stereo unspecified), the TGI in the assay on SK-MEL-28 melanoma, in the assay on ACHN renal, in the assay on HCT-116 colon, with SNB-19 CNS, in the assay with SR leukemia and in the assay with HCC-2998 colon was over 10 µM throughout. For the same molecule, the TGI in the assay with TK-10 renal, in the assay with CCRF-CEM leukemia and with SW-620 colon was over 10 µM in each case.
Regarding `COC(=O)c1c(C(=O)OC)c2ccccn2c1-c1cc(OC)c(Br)c(=O)o1`, the TGI with SK-MEL-28 melanoma, in the assay on ACHN renal, in the assay with HCT-116 colon, in the assay on SNB-19 CNS, in the assay with SR leukemia and in the assay on HCC-2998 colon was over 100 µM each time. Moreover, the TGI with TK-10 renal, with CCRF-CEM leukemia and in the assay with SW-620 colon was over 100 µM each time.
As for `S=C(N/N=C(\c1ccccc1)c1ccccn1)NC1CCCCC1`, the TGI in the assay with SK-MEL-28 melanoma, with ACHN renal, in the assay with HCT-116 colon, with SNB-19 CNS, with SR leukemia and in the assay with HCC-2998 colon was over 100 µM in each case. The TGI in the assay with TK-10 renal, with CCRF-CEM leukemia and in the assay on SW-620 colon was over 100 µM in each case.
With `Cc1cc(S(=O)(=O)N2CCNNC2=O)c(S)cc1Cl`, the TGI in the assay with SK-MEL-28 melanoma is 59.6 µM; in the assay on ACHN renal it was over 100 µM; with SNB-19 CNS, over 100 µM; with SR leukemia it was over 100 µM; in the assay on HCC-2998 colon, over 100 µM; with TK-10 renal it was over 100 µM. For the same molecule, the TGI in the assay with CCRF-CEM leukemia and in the assay with SW-620 colon was over 100 µM throughout.
As to `COc1ccc2c3c(Nc4cccc(/C(C)=N\O)c4)[nH]c4ccccc4c-3c(N=O)c2c1`, the GI50 was 12.7 µM in the assay with SK-MEL-28 melanoma; 33.3 µM with ACHN renal; 14.6 µM with HCT-116 colon; 43.7 µM in the assay with SNB-19 CNS; 20.4 µM in the assay with SR leukemia; 10.6 µM with HCC-2998 colon. Besides, the GI50 with TK-10 renal was 80.3 µM; in the assay with CCRF-CEM leukemia, 13.6 µM; in the assay on SW-620 colon, 32.1 µM. In addition, the TGI with SK-MEL-28 melanoma is 42.7 µM; in the assay with ACHN renal it was 91.7 µM; with HCT-116 colon, 34.2 µM; in the assay with SNB-19 CNS it was over 100 µM; with SR leukemia, over 100 µM; in the assay on HCC-2998 colon it was 22.4 µM. Moreover, the TGI in the assay with TK-10 renal, in the assay with CCRF-CEM leukemia and with SW-620 colon was over 100 µM each time.
`CCOC(=O)c1nc2ccc(C(F)(F)F)cc2nc1Nc1cc(OC)c(OC)c(OC)c1`: the TGI in the assay on SK-MEL-28 melanoma, in the assay with ACHN renal, in the assay on HCT-116 colon, in the assay with SNB-19 CNS, in the assay on SR leukemia and in the assay on HCC-2998 colon was over 100 µM each time. The TGI in the assay on TK-10 renal, with CCRF-CEM leukemia and with SW-620 colon was over 100 µM each time.
In the case of `Cc1ccc(C(=O)Nc2ccc(CP(=O)(O)O)cc2)cc1NC(=O)c1cccc(N)c1`, the TGI in the assay with SK-MEL-28 melanoma, in the assay on ACHN renal, with HCT-116 colon, with SNB-19 CNS, with SR leukemia and in the assay with HCC-2998 colon was over 100 µM in each case. Besides, the TGI with TK-10 renal, in the assay with CCRF-CEM leukemia and with SW-620 colon was over 100 µM each time.
In the case of `CCCNC(=S)N/N=C(\C)c1ccc(S(=O)(=O)N(C)c2ccccc2)cc1`, the TGI was over 100 µM with SK-MEL-28 melanoma; over 64.9 µM in the assay on ACHN renal; over 100 µM with HCT-116 colon; over 87.3 µM in the assay on SNB-19 CNS; over 100 µM in the assay with SR leukemia; over 100 µM in the assay on HCC-2998 colon. The values for the TGI in the assay on TK-10 renal, with CCRF-CEM leukemia and in the assay with SW-620 colon were over 91.6 µM, over 31.6 µM and over 100 µM, respectively.
`O=C(CN(C(=O)OC12CC3CC(CC(C3)C1)C2)C(=O)OC12CC3CC(CC(C3)C1)C2)Oc1ccc([N+](=O)[O-])cc1`: the TGI in the assay on SK-MEL-28 melanoma, in the assay on ACHN renal, with HCT-116 colon, with SNB-19 CNS, with SR leukemia and in the assay with HCC-2998 colon was over 100 µM in each case. The TGI in the assay with TK-10 renal, with CCRF-CEM leukemia and in the assay on SW-620 colon was over 100 µM throughout.
As for `CCCCn1c(CSc2ccc(Cl)cc2)c(C(=O)OCC)c2cc(OC)c(Br)cc21`, the TGI in the assay on SK-MEL-28 melanoma, in the assay on ACHN renal, in the assay on HCT-116 colon, in the assay on SNB-19 CNS, with SR leukemia and in the assay on HCC-2998 colon was over 100 µM each time. Besides, the TGI in the assay with TK-10 renal, with CCRF-CEM leukemia and in the assay on SW-620 colon was over 100 µM in each case.
For `COc1cc2c(c(OC)c1OC)C(=O)[C@@H]1[C@H]2N1C(=O)NCCCl`, the TGI in the assay on SK-MEL-28 melanoma, in the assay with ACHN renal, in the assay on HCT-116 colon, in the assay with SNB-19 CNS, with SR leukemia and in the assay with HCC-2998 colon was over 100 µM in each case. In addition, the TGI in the assay with TK-10 renal, with CCRF-CEM leukemia and in the assay with SW-620 colon was over 100 µM in each case.
Turning to `CC(=O)Nc1ccc2nc(-c3ccccn3)c(-c3ccccn3)nc2c1`, the TGI with SK-MEL-28 melanoma, in the assay on ACHN renal, in the assay with SNB-19 CNS, in the assay with SR leukemia, with HCC-2998 colon and in the assay with TK-10 renal was over 100 µM throughout. For the same molecule, the TGI in the assay with CCRF-CEM leukemia and with SW-620 colon was over 100 µM each time.
